Source: patent publication US10137182B2, “Cancer vaccines and vaccination methods” (ImmunoCellular Therapeutics, Ltd., priority 2013, dated 2018)
“Also recorded” adds a separate entry of the source. Where two headings read alike, the source gives them in different places. Where no end group is shown, it is not given here.

Assays:
[1] = test system: HLA-A2+ human ovarian cancer stem cells 882CSC
Experimental: (§1) Human monocyte-derived DCs were generated using previously described methods. […] The DCs were washed and plated in 6-well plates at a concentration of 5 ×10^6 cells/well IFN-γ (1000 unit/ml), and then monophosphoryl lipid A (MPLA, 20-50μg/ml) (Cat# L6895, Sigma, St. Louis) was added into the wells to mature the DC for 24hr or 48 hrs.
(§2) In order to evaluate antigen-specific immune responses, CD8^+ T cells were isolated from fresh or frozen apheresis by positive selection using Dynabeads® CD8 Positive Isolation Kit (Life Technologies, Grand Island, N.Y.) and co-cultured with autologous mDC for four weeks. DCs were added weekly. Briefly, mDCs were pulsed with synthetic peptides (10 μg/μl) for 6-8 hours at 37° C., and then treated with 20 ug/ml Mitomycin C (Sigma-Aldrich, St. Louis, Mo.) for 25 min at 37° C. and 5% CO2. The mDCs (5×10^4 cells/well) were co-cultured with autologous CD8^+ T cells (5×10^5 cells/well) in a 96-well plate at 37° C., 5% CO2 in a final volume of 200 μl CTL medium (IMDM with 0.24 mM Asparagine, 0.55 mM L-Arginine, 1.5 mM L-Glutamine and 10% heat inactivated human AB serum). Half of the medium was replaced every other day by fresh culture medium containing 40 IU/ml IL-2 and 20 ng/ml IL-7, the 3rd and 4th week 40 U/ml of IL-2 was replaced with 25 ng/ml IL-15. In the culture medium, peptides could also be added to the culture well at a final concentration of 1-2 μg/ml.
(§3) DDAO-SE labeled target cells were mixed with effector cells at a 1:10 ratio in round-bottom 96 well plate and incubated overnight at 37° C., 5% CO2. The cells were washed, fixed, and permeabilized with Fix/Perm solution (BD Biosciences) and then stained for 30 minutes at 4° C. with 10 μl PE-labeled anti-cleaved caspase-3 monoclonal antibody, followed by Cyan flow cytometric analysis (Beckman Coulter, Inc).

[2] = test system: HLA-A2+ human ovarian cancer stem cells 1031CSC
Experimental: as §1, §2, §3

HLA-A*0201 molecules = HLA-A*0201 molecules (Homo sapiens, UniProt P04439, D140Y/D185E/D98H/E176V/E277Q/G131W/G231S/I119V/I121R/I166T/I218V/L300P/L318F/N151K/N90K/P208A/P217A/Q86G/Q94H/R138H/R169H/T345S); assay: T2 cell binding assay of HLA-A2 peptides (upregulation of HLA-A2 on T2 cells, MFI by flow cytometry); conditions: for binding affinity to HLA-A*0201 molecules / T2 cells (in words): peptide 75 μg/ml, overnight
[3] = Immunogenicity in vitro of A2 peptide epitopes (Table 1); conditions: A2 peptide epitope(s) of Exemplary Vaccine 1; no method given
[4] = test system: HLA-A2+ human ovarian cancer stem cells 1031CSC; assay: Killing assay (DDAO-SE / cleaved caspase-3) with peptide-specific CTLs against 1031CSC; conditions: CTLs induced by peptide-pulsed HLA-A2+ DC; target:effector 1:10, overnight
Experimental: as §1, §2, §3

[5] = test system: HLA-A2+ human ovarian cancer stem cells 882CSC; assay: Killing assay (DDAO-SE / cleaved caspase-3) with peptide-specific CTLs against 882CSC; conditions: CTLs induced by peptide-pulsed HLA-A2+ DC; target:effector 1:10, overnight
Experimental: as §1, §2, §3

Molecule: CSCC[C@H](NC(=O)[C@@H](N)C(C)C)C(=O)N[C@@H](C)C(=O)NCC(=O)N[C@H](C(=O)NCC(=O)N[C@@H](CO)C(=O)N1CCC[C@H]1C(=O)N[C@@H](Cc1ccc(O)cc1)C(=O)N[C@H](C(=O)O)C(C)C)C(C)C [HER2 p773]
- cytotoxicity of peptide-specific CTLs against 882CSC [1]: can efficiently recognize and lyse
- cytotoxicity of peptide-specific CTLs against 1031CSC [2]: can efficiently recognize and lyse

Molecule: EIWTHSYKV (listed as Homo sapiens) [FOLR1 p191]
- MFI index (relative binding affinity fluorescence index, FI) (HLA-A*0201 molecules; T2 cells incubated overnight with peptide 75 μg/ml and β2-microglobulin, FI = MFI(peptide)−MFI(untreated cells)/MFI(untreated cells)): less than 1
- binding affinity to HLA-A*0201 molecules / T2 cells (in words) (HLA-A*0201 molecules): lower affinity binding
- binding affinity to HLA-A*0201 molecules / T2 cells (in words) (HLA-A*0201 molecules; listed as FOLR1p191): low affinity; also recorded: lower binding capacity
- Immunogenicity in vitro [3]: Yes

Molecule: KVLEYVIKV (listed as Homo sapiens) [MAGE-A1 p278]
- binding affinity to HLA-A*0201 molecules / T2 cells (in words) (HLA-A*0201 molecules): high affinity binding
- Immunogenicity in vitro [3]: Yes

Molecule: SLLFLLFSL (listed as Homo sapiens)
- Immunogenicity in vitro [3]: Yes

Molecule: SLLMWITQC [NY-ESO-1 p157]
- Immunogenicity in vitro [3]: Yes

Molecule: TLADFDPRV [EphA2 p883]
- cytotoxicity of peptide-specific CTLs against 1031CSC [4]: can efficiently recognize and lyse
- cytotoxicity of peptide-specific CTLs against 882CSC [5]: can efficiently recognize and lyse

Molecule: VLPLTVAEV (listed as Homo sapiens) [mesothelin p531]
- binding affinity to HLA-A*0201 molecules / T2 cells (in words) (HLA-A*0201 molecules): high affinities
- binding affinity to HLA-A*0201 molecules / T2 cells (in words) (HLA-A*0201 molecules; listed as mesothelinp531): high affinity binding
- Immunogenicity in vitro [3]: Yes

Molecule: WLPFGFILI [IL-13Rα2 p345]
- cytotoxicity of peptide-specific CTLs against 1031CSC [4]: can efficiently recognize and lyse
- cytotoxicity of peptide-specific CTLs against 882CSC [5]: can efficiently recognize and lyse
